Source: patent US12097184B2, “Formulations of psilocin that have enhanced stability” (priority 2021, dated 2024)
Marks after values point to notes of the source that are not given here.

What was measured:
[1] = Salt screen using solutions in ethanol, appearance/colour on storage; details: light-protected; for Result at 6 days: solvent removed, stored at RT under Ar, appearance after addition of EtOH; for Results at 18 h: ethanol solution, storage overnight at RT, Ar
[2] = Exposure of HBr1 to AAC; assay type: physicochemical; details: AAC for two days
From the text: HBr1 was unstable upon exposure to AAC for two days and became deliquescent.

[3] = cited from earlier work
[4] = HPLC solution stability and stress conditions, free base versus tartrate salt
[5] = Analytical characterization of dosing solutions used in the PK study; assay type: physicochemical; details: after 2 hours on the bench at room temperature, PBS, depending on the concentration
Experimental: (§1) The study was conducted in male/female CD rats. Test articles were formulated fresh in PBS. Psilocin and Psilocybin were administered IV and PO. Plasma samples were analyzed for psilocin and psilocybin (group 2).
(§2) FIGS. 2A-2C show PK characteristics of psilocin and psilocybin after IV dosing. FIGS. 3A-3B show PK characteristics of psilocin and psilocybin after PO dosing. FIGS. 4A-4B show psilocin and psilocybin after IV and PO dose.
After IV administration, psilocybin is detectable in plasma for 15 minutes. PO administration of psilocin and psilocybin results in similar PK values, including tmax, t1/2, AUC, and bioavailability. […] Low stability of psilocin in aqueous solutions could be a contributing factor to observed differences. […] Stabilization of psilocin provides viable, stable formulations and lower variability of dosing solutions, resulting in a better PK, such as compared to psilocybin.

[6] = PK evaluation of psilocin and psilocybin after IV and PO administration in rats; assay type: in vivo, CD rats; details: for PK values, including Cmax and AUC and Cl: IV administration; for PK values, including Cmax and AUC and Cl / PK values, including tmax, t1/2, AUC, and bioavailability: psilocin versus psilocybin; for PK values, including tmax, t1/2, AUC, and bioavailability: PO administration
Experimental: PK Evaluation of Psilocin and Psilocybin after IV and PO Administration in Rats
as §1, §2

[7] = protected from light, over 14 days; cited from earlier work
[8] = Dynamic vapor sorption/desorption (DVS) analysis; assay type: physicochemical
Experimental: The weight versus time and percent weight change versus percent relative humidity (RH) curves from the DVS analysis of psilocin tartrate lot 16782-15C is presented in FIGS. 13 and 14, respectively.
DVS analysis was carried out using a TA Instruments Q5000 Dynamic Vapor Sorption analyzer. The instrument was calibrated with standard weights and a sodium bromide standard for humidity. Approximately 12 mg of the powder sample was loaded into a metal-coated quartz pan for analysis. The sample was analyzed at 25° C. after being equilibrated to […] in 10% RH steps from 5 to 95% RH (adsorption cycle) and from 95 to 5% RH (desorption cycle). The movement from one step to the next occurred either after satisfying the equilibrium criterion of 0.01% weight change in 5 minutes or, if the equilibrium criterion was not met, after 90 minutes. The percent weight change values were calculated using Microsoft Excel® 2016.

[9] = Analytical characterization of a psilocin tartrate sample (solid state); assay type: physicochemical; details: OM, XRPD, DSC, TGA, DVS
From the text: One sample of psilocin tartrate (lot 16782-15C) was submitted for optical microscopy (OM), X-ray powder diffraction (XRPD), differential scanning calorimetry (DSC), thermogravimetric analysis (TGA), dynamic vapor sorption/desorption (DVS), and ^1H NMR spectroscopy.

[10] = test system: intestinal epithelia; details: cited from earlier work
[11] = after IV administration of psilocybin; cited from earlier work

Adipic
Result at 6 days [1]: ↑C

Oxalic
Results at 18 h [1]: 0

O=C(O)CCC(=O)O [Succinic]
Results at 18 h [1]: F ^c | Result at 6 days [1]: ↑C

O=C(O)CC(=O)O [Malonic]
Results at 18 h [1]: F ^c | Result at 6 days [1]: ↑C

Mandelic
Results at 18 h [1]: 0

Br.CN(C)CCc1c[nH]c2cccc(O)c12 [HBr1]
stability upon exposure to AAC [2]: unstable

L-Tartaric
Results at 18 h [1]: 0 ^d

CN(C)CCc1c[nH]c2cccc(O)c12 [psilocin, 4-hydroxy-N,N-dimethyltryptamine]
psilocin lost ([3]; biological samples with addition of 25 mM ascorbic acid): greater than 5% | stability under a variety of stress conditions ([4]; FIG. 20): limited stability | degradation of dosing solutions [5]: 30%-70% | PK values, including Cmax and AUC and Cl [6]: almost identical | PK values, including tmax, t1/2, AUC, and bioavailability [6]: similar | Cmax ([6]; both sexes, CD, rat, PO administration of psilocin, plasma psilocin, read-out: Measured Cmax): 153 ng/mL | peak loss [7]: 50%

Fumaric
Results at 18 h [1]: F ^c

CN(C)CCc1c[nH]c2cccc(O[C@@H]3O[C@H](C(=O)O)[C@@H](O)[C@H](O)[C@H]3O)c12 [psilocin glucuronide]
short-term stability compared with psilocin ([3]; one week, whole blood at room temperature and deep frozen samples): better than that of psilocin | long-term stability compared with psilocin ([3]; six months, deep frozen serum and urine samples): greater long-term stability

Maleic
Results at 18 h [1]: 0 | Result at 6 days [1]: ↑C

O=C1O[C@H]([C@@H](O)CO)C(O)=C1O [Ascorbic]
Results at 18 h [1]: 0 | Result at 6 days [1]: C + solid

O=C(O)c1ccccc1O [Salicylic]
Results at 18 h [1]: 0 | Result at 6 days [1]: ↑C

psilocin tartrate
stability in solution compared to the free base ([4]; HPLC, FIG. 21): improved stability | hygroscopicity [8]: moderately hygroscopic | wt. loss upon equilibration at 5% RH ([8]; 25° C.): 0.12% wt. loss upon equilibration at 5% RH | wt. gain from 5 to 95% RH ([8]; 25° C., adsorption cycle): 4.64% wt. gain from 5 to 95% RH | wt. loss from 95 to 5% RH ([8]; 25° C., desorption cycle): 4.67% wt. loss from 95 to 5% RH | solid-state stability [9]: stable crystalline solid

CN(C)CCc1c[nH]c2cccc(OP(=O)(O)O)c12 [psilocybin, 4-phosphoryloxy-N, N-dimethyltryptamine, reference compound]
PK values, including Cmax and AUC and Cl [6]: almost identical | PK values, including tmax, t1/2, AUC, and bioavailability [6]: similar | time psilocybin is detectable in plasma ([6]; after IV administration): 15 min | permeability [10]: not permeable | inter-individual variability of psilocin concentrations [11]: over 3 fold
